SMILES strings stand for the structures.

Usually EC50 stands for the concentration that produces a half-maximal response. Higher therefore signals a less potent agent.

For the assay, the target named is T1, KCC2 (Homo sapiens, UniProt Q9H2X9).
T1 construct: expressed in transfected cells; host or cells: HEK293 cells electroporated (Maxcyte STX) with the pcDNA3.1 KCC2 plasmid
T1 sequence (Q9H2X9 1-1139): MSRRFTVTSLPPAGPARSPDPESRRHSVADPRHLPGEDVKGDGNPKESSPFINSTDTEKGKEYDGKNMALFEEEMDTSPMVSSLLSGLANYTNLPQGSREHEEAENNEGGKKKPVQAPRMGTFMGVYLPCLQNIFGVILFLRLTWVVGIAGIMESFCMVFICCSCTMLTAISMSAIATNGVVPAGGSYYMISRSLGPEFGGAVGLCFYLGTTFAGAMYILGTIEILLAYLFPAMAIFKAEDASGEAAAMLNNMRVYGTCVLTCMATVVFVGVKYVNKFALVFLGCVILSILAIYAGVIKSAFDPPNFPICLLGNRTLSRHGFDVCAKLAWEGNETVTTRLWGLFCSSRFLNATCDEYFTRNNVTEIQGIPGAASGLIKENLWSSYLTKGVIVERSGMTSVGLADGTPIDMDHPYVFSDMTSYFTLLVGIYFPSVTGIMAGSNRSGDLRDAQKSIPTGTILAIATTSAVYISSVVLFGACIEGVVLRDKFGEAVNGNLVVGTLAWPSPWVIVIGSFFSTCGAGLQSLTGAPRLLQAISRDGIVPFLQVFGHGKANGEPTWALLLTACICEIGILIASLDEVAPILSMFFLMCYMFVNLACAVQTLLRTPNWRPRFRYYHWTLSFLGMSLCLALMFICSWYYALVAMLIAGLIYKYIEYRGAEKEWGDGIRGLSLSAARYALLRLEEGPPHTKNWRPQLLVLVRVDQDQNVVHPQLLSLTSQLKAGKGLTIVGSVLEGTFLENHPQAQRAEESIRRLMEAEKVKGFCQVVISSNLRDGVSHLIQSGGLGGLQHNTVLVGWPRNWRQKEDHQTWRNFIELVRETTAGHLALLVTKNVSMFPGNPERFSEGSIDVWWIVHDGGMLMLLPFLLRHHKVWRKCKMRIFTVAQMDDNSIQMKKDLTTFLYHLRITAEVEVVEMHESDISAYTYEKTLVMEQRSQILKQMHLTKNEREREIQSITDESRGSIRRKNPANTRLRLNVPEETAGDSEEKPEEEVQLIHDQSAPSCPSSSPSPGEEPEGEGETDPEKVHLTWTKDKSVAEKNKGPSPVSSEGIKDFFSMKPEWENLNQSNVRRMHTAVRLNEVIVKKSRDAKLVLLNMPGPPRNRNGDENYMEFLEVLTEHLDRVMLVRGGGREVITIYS
The assay can be described thus: KCC2 thallium transport FLIPR-based assay (Tl+ influx in HEK293 cells expressing KCC2). Type of assay: cell-based. The settings on record: 90 min compound incubation at RT, thallium flux at 120 s used to determine EC50. As to the method:
A thallium transport FLIPR-based assay was used to measure the ability of compounds to activate KCC2. KCC2 activity is assessed by measuring KCC2-dependent Tl^+ influx in a KCC2-expressing cell. The assay protocol was based on those described by Delpire et al (Proc Natl Acad Sci USA. 2009 Mar. 31; 106(13): 5383-5388) and Zhang et al (Journal of Biomolecular Screening 15(2): 2010).
KCC2 was synthesised and codon optimised by GeneArt based on the Uniprot sequence Q9H2X9. The final sequence was subcloned into pcDNA3.1.
HEK293 cells were grown in 10 layer cell stacks at 37° C., 5% CO2, in DMEM, 10% fetal calf serum and 2 mM Glutamine. The cells were detached by removing the media and washing the cell stack with 100 ml of PBS. The PBS was removed and 100 ml of 1× TrypLE was added and the cell stack returned to 37° C. for 5 min. The detached cells were then counted in a Vi Cell counter and spun for 10 min at 1250 rpm in a Sorval Legend centrifuge. The cells were diluted down in Maxcyte electroporation buffer at 4× the final concentration and spun as before. The cell pellet was resuspended at 1×10^8/cells per ml and electroporated in a Maxcyte Cl 2.2 bag on a Maxcyte STX machine via the HEK293 programme with 200 ug/ml of plasmid DNA. The cells were then allowed to recover for 30 min before adding to 500 ml of PBS and then counted again on the Vi Cell. The cells were then frozen down in planer controlled rate freeze in 90% complete media, 10% DMSO.
All reagents were dispensed using a Mulitdrop Combi unless stated otherwise. All FluXOR Invitrogen propriety buffer compositions are mentioned in tables below.
HEK293 KCC2 cells were harvested at a density of 3.33×10^5 cells/mL in complete media (DMEM, Sigma, D6546, 10% fetal calf serum and 1% Glutamax) and 30 μL per well seeded into 384-well PDL coated black-clear plates (Corning, 354663). Leave cells at RT for 20 mins to settle before incubating for 48 h at 37° C., 5% CO2. Following incubation, perform three wash steps in HBSS (Sigma, H6648) using a Biotek cell washer with the final aspiration leaving 20 μL HBSS residual volume in each well. A further 20 μL per well of thallium loading dye is then added (1 h, RT, protect from light). 5 μL of test compounds (100 μM top concentration, 1:2 dilutions, 12 point curve) were added using the FLIPR TETRA and incubated at RT for 90 min in the dark. Following compound incubation, the thallium flux response is read on FLIPR TETRA (ex. 515-575 nm) which is initiated by FLIRR TETRA dispensing 5 μL stimulus buffer into each well. Recordings are measured every 1 second for 120 seconds. Thallium flux at 120 s used to determine EC50.
Compound buffer: Assay buffer with 1 μL of bumetanide per 10 ml.
`CC(C)N1Cc2c(Nc3ccc(-c4ccccc4)c(F)c3)nc(C3=CCOCC3)nc2C1=O` [Example 82, 2-(3,6-dihydro-2H-pyran-4-yl)-4-((2-fluoro-[1,1′-biphenyl]-4-yl)amino)-6-isopropyl-5,6-dihydro-7H-pyrrolo[3,4-d]pyrimidin-7-one] had an EC50 of 2290 nM.
With `CCCc1ccc(Nc2nc(N3CCOC(C4CC4)C3)nc3c2CN(C(C)C)C3=O)cc1` (centres unmarked) [Example 59, 2-(2-cyclopropylmorpholin-4-yl)-6-(propan-2-yl)-4-[(4-propylphenyl)amino]-5,6-dihydro-7H-pyrrolo[3,4-d]pyrimidin-7-one] the figure was 4460 nM.
In turn, `C[C@@H]1CN(c2nc(Nc3ccc(C4CCCCC4)cc3)c3cc(C(=O)O)cnc3n2)CCO1` [Example 103, (R)-4-((4-cyclohexylphenyl)amino)-2-(2-methylmorpholino)pyrido[2,3-d]pyrimidine-6-carboxylic acid] showed an EC50 of 3990 nM.
In the case of `CC(C)c1ccc(Nc2nc(N3CCOC(C4CC4)C3)nc3c2CN(C(C)C)C3=O)cc1` (centres unmarked) [Example 10, 2-(2-cyclopropylmorpholin-4-yl)-6-(propan-2-yl)-4-{[4-(propan-2-yl)phenyl]amino}-5,6-dihydro-7H-pyrrolo[3,4-d]pyrimidin-7-one], the midpoint of the response, the EC50, lay at 2990 nM.
With `CC(=O)Nc1cnc2nc(N3CCO[C@H](C)C3)nc(Nc3ccc(C4CCCCC4)cc3)c2c1` [Example 107, (R)—N-(4-((4-cyclohexylphenyl)amino)-2-(2-methylmorpholino)pyrido[2,3-d]pyrimidin-6-yl)acetamide] the figure was 6300 nM.
With `CC(C)N1Cc2c(Nc3ccc(C4CCCCC4)cc3)nc(N3CCOC(C4CC4)C3)nc2C1=O` (single isomer, unassigned) [Example 14, 4-[(4-cyclohexylphenyl)amino]-2-(2-cyclopropylmorpholin-4-yl)-6-(propan-2-yl)-5,6-dihydro-7H-pyrrolo[3,4-d]pyrimidin-7-one] the figure was 707 nM; with `CC(C)N1Cc2c(Nc3ccc(-c4ccc(OCCNC(=O)OC(C)(C)C)cc4)cc3)nc(N3CCOCC3)nc2C1=O` [Example 69, tert-Butyl (2-((4′-((6-isopropyl-2-morpholino-7-oxo-6,7-dihydro-5H-pyrrolo[3,4-d]pyrimidin-4-yl)amino)-[1,1′-biphenyl]-4-yl)oxy)ethyl)carbamate], 1560 nM.
On to `C[C@@H]1CN(c2nc(Nc3ccc(C4CCCCC4)cc3)c3c(n2)C(=O)N(CCN(C)C)C3)CCO1` [Example 73, 4-[(4-cyclohexylphenyl)amino]-6-[2-(dimethylamino)ethyl]-2-[(2R)-2-methylmorpholin-4-yl]-5,6-dihydro-7H-pyrrolo[3,4-d]pyrimidin-7-one], for which a half-maximal response (EC50) required 2730 nM.
With `CC(C)N1Cc2c(Nc3ccc(Oc4ccc(F)cc4)cc3)nc(N3CCO[C@H](C)C3)nc2C1=O` [Example 51, (R)-4-((4-(4-fluorophenoxy)phenyl)amino)-6-isopropyl-2-(2-methylmorpholino)-5,6-dihydro-7H-pyrrolo[3,4-d]pyrimidin-7-one] the figure was 973 nM; with `C[C@@H]1CN(c2nc(Nc3ccc(C4CCCCC4)cc3)c3cc(Br)cnc3n2)CCO1` [Example 97, 6-bromo-N-(4-cyclohexylphenyl)-2-[(2R)-2-methylmorpholin-4-yl]pyrido[2,3-d]pyrimidin-4-amine], 1350 nM; with `CCOCCN(C)c1nc(Nc2ccc(C3CCCCC3)cc2)c2c(n1)C(=O)N(C(C)C)C2` [Example 20, 4-[(4-cyclohexylphenyl)amino]-2-[(2-ethoxyethyl)(methyl)amino]-6-(propan-2-yl)-5,6-dihydro-7H-pyrrolo[3,4-d]pyrimidin-7-one], 2350 nM.
Take `C[C@@H]1CN(c2nc(Nc3ccc(C4CCCCC4)cc3)c3cc(C#N)cnc3n2)CCO1` [Example 101, (R)-4-((4-cyclohexylphenyl)amino)-2-(2-methylmorpholino)pyrido[2,3-d]pyrimidine-6-carbonitrile]: the EC50 came to 1010 nM.
With `CC(C)N1Cc2c(Nc3ccc(C4CCCCC4)cc3)nc(N(C)CC3CC3)nc2C1=O` [Example 30, 4-[(4-cyclohexylphenyl)amino]-2-[(cyclopropylmethyl)(methyl)amino]-6-(propan-2-yl)-5,6-dihydro-7H-pyrrolo[3,4-d]pyrimidin-7-one] the figure was 4050 nM; with `CC(C)N1Cc2c(Nc3ccc(C4CCCCC4)cc3)nc(N(C)Cc3cnccn3)nc2C1=O` [Example 33, 4-[(4-cyclohexylphenyl)amino]-2-{methyl[(prazin-2-yl)methyl]amino}-6-(propan-2-yl)-5,6-dihydro-7H-pyrrolo[3,4-d]pyrimidin-7-one], 5010 nM; with `CC(C)N1Cc2c(Nc3ccc(C4CCCCC4)cc3)nc(-n3ccnc3)nc2C1=O` [Example 79, 4-((4-cyclohexylphenyl)amino)-2-(1H-imidazol-1-yl)-6-isopropyl-5,6-dihydro-7H-pyrrolo[3,4-d]pyrimidin-7-one], 6300 nM.
With `C[C@@H]1CN(c2nc3c(c(Nc4ccc(C5CCCCC5)cc4)n2)COC3)CCO1` [Example 90, (R)—N-(4-cyclohexylphenyl)-2-(2-methylmorpholino)-5,7-dihydrofuro[3,4-d]pyrimidin-4-amine] the figure was 1710 nM.
With `COC(=O)c1cnc2nc(N3CCO[C@H](C)C3)nc(Nc3ccc(C4CCCCC4)cc3)c2c1` [Example 102, methyl (R)-4-((4-cyclohexylphenyl)amino)-2-(2-methylmorpholino) pyrido[2,3-d]pyrimidine-6-carboxylate] the figure was 700 nM.
The compound `CC(C)N1Cc2c(Nc3ccc(C4CCCCC4)cc3)nc(N(C)Cc3ccon3)nc2C1=O` [Example 22, 4-[(4-cyclohexylphenyl)amino]-2-{methyl[(1,2-oxazol-3-yl)methyl]amino}-6-(propan-2-yl)-5,6-dihydro-7H-pyrrolo[3,4-d]pyrimidin-7-one] showed an EC50 of 2790 nM.
`CC(C)N1Cc2c(Nc3ccc(C4CCCCC4)cc3)nc(-c3ccnc(C#N)c3)nc2C1=O` [Example 41, 4-(4-((4-cyclohexylphenyl)amino)-6-isopropyl-7-oxo-6,7-dihydro-5H-pyrrolo[3,4-d]pyrimidin-2-yl)picolinonitrile] yielded an EC50 of 518 nM.
`CC(C)N1Cc2c(Nc3ccc(-c4ccc(Cl)cc4)cc3)nc(N3CCOCC3)nc2C1=O` [Example 89, 4-[(4′-chloro[1,1′-biphenyl]-4-yl)amino]-2-(morpholin-4-yl)-6-(propan-2-yl)-5,6-dihydro-7H-pyrrolo[3,4-d]pyrimidin-7-one]: the EC50 worked out at 3510 nM.

These data come from US12617795B2, “Substituted 6,7-dihydro-5H-pyrrolo[3,4-d]pyrimidines, 5,7-dihydrofuro[3,4-d]pyrimidines, and pyrido[2,3-d]pyrimidines as KCC2 modulators” (Astrazeneca AB, priority 2020, dated 2026).
